In PubChem BioAssay (NCI):
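Following 48 hours of exposure in 96-well plates, responses at five concentrations were used to interpolate endpoints linearly. TGI: concentration producing complete growth inhibition.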

Legend:
Assay in all cases: growth of human tumour cells (NCI), 48 h
PC-3 prostate = test system: PC-3 prostate
TK-10 renal = test system: TK-10 renal
SR leukemia = test system: SR leukemia
RXF 393 renal = test system: RXF 393 renal
MALME-3M melanoma = test system: MALME-3M melanoma
SW-620 colon = test system: SW-620 colon
RPMI-8226 leukemia = test system: RPMI-8226 leukemia
NCI/ADR-RES ovarian = test system: NCI/ADR-RES ovarian
UO-31 renal = test system: UO-31 renal
HOP-62 NSCLC = test system: HOP-62 NSCLC
NCI-H226 lung = test system: NCI-H226 lung
CAKI-1 renal = test system: CAKI-1 renal
CCRF-CEM leukemia = test system: CCRF-CEM leukemia
HCC-2998 colon = test system: HCC-2998 colon
SNB-19 CNS = test system: SNB-19 CNS
UACC-62 melanoma = test system: UACC-62 melanoma
MDA-MB-435 = test system: MDA-MB-435
T-47D breast = test system: T-47D breast
SF-539 CNS = test system: SF-539 CNS
MDA-N = test system: MDA-N
SN12C renal = test system: SN12C renal
M14 melanoma = test system: M14 melanoma
IGROV1 ovarian = test system: IGROV1 ovarian
A498 renal = test system: A498 renal
A549 NSCLC = test system: A549 NSCLC
NCI-H460 lung = test system: NCI-H460 lung
HCT-116 colon = test system: HCT-116 colon
SK-MEL-28 melanoma = test system: SK-MEL-28 melanoma
SNB-75 CNS = test system: SNB-75 CNS
OVCAR-4 ovarian = test system: OVCAR-4 ovarian
MOLT-4 leukemia = test system: MOLT-4 leukemia
HOP-92 NSCLC = test system: HOP-92 NSCLC
SF-295 CNS = test system: SF-295 CNS
HS 578T breast = test system: HS 578T breast
HCT-15 colon = test system: HCT-15 colon
SK-MEL-2 melanoma = test system: SK-MEL-2 melanoma
BT-549 breast = test system: BT-549 breast
OVCAR-8 ovarian = test system: OVCAR-8 ovarian
MCF7 breast = test system: MCF7 breast
NCI-H23 lung = test system: NCI-H23 lung
OVCAR-5 ovarian = test system: OVCAR-5 ovarian
SF-268 CNS = test system: SF-268 CNS
KM12 colon = test system: KM12 colon
U251 CNS = test system: U251 CNS
COLO 205 colon = test system: COLO 205 colon
786-0 renal = test system: 786-0 renal
UACC-257 melanoma = test system: UACC-257 melanoma
SK-MEL-5 melanoma = test system: SK-MEL-5 melanoma
ACHN renal = test system: ACHN renal
HL-60(TB) leukemia = test system: HL-60(TB) leukemia
DU-145 prostate = test system: DU-145 prostate
OVCAR-3 ovarian = test system: OVCAR-3 ovarian
HT29 colon = test system: HT29 colon
LOX IMVI melanoma = test system: LOX IMVI melanoma
EKVX NSCLC = test system: EKVX NSCLC
K-562 leukemia = test system: K-562 leukemia
NCI-H522 lung = test system: NCI-H522 lung
SK-OV-3 ovarian = test system: SK-OV-3 ovarian

With O=c1[nH]nc(-c2cccc(Br)c2)[nH]1 the TGI (PC-3 prostate) was greater than 100 µM, the TGI (TK-10 renal) was greater than 100 µM and the TGI (SR leukemia) was greater than 100 µM. The TGI (RXF 393 renal) was greater than 100 µM, the TGI (MALME-3M melanoma) was greater than 100 µM and the TGI (SW-620 colon) was greater than 100 µM. The TGI (RPMI-8226 leukemia) was greater than 100 µM, the TGI (NCI/ADR-RES ovarian) was greater than 100 µM and the TGI (UO-31 renal) was greater than 100 µM. It also gave a TGI (HOP-62 NSCLC) greater than 100 µM, a TGI (NCI-H226 lung) greater than 100 µM and a TGI (CAKI-1 renal) greater than 100 µM. For the same molecule, the TGI (CCRF-CEM leukemia) was greater than 100 µM, the TGI (HCC-2998 colon) was greater than 100 µM and the TGI (SNB-19 CNS) was greater than 100 µM. It also gave a TGI (UACC-62 melanoma) greater than 100 µM, a TGI (MDA-MB-435) greater than 100 µM and a TGI (T-47D breast) greater than 100 µM. It also gave a TGI (SF-539 CNS) greater than 100 µM, a TGI (MDA-N) greater than 100 µM and a TGI (SN12C renal) greater than 100 µM. For the same molecule, the TGI (M14 melanoma) was greater than 100 µM, the TGI (IGROV1 ovarian) was greater than 100 µM and the TGI (A498 renal) was greater than 100 µM. For the same molecule, the TGI (A549 NSCLC) was greater than 100 µM, the TGI (NCI-H460 lung) was greater than 100 µM and the TGI (HCT-116 colon) was greater than 100 µM. The TGI (SK-MEL-28 melanoma) was greater than 100 µM, the TGI (SNB-75 CNS) was greater than 100 µM and the TGI (OVCAR-4 ovarian) was greater than 100 µM. It also gave a TGI (MOLT-4 leukemia) greater than 100 µM, a TGI (HOP-92 NSCLC) greater than 100 µM and a TGI (SF-295 CNS) greater than 100 µM. It also gave a TGI (HS 578T breast) of 79.7 µM, a TGI (HCT-15 colon) greater than 100 µM and a TGI (SK-MEL-2 melanoma) greater than 100 µM. For the same molecule, the TGI (BT-549 breast) was greater than 100 µM, the TGI (OVCAR-8 ovarian) was greater than 100 µM and the TGI (MCF7 breast) was greater than 100 µM. For the same molecule, the TGI (NCI-H23 lung) was greater than 100 µM, the TGI (OVCAR-5 ovarian) was greater than 100 µM and the TGI (SF-268 CNS) was greater than 100 µM. For the same molecule, the TGI (KM12 colon) was greater than 100 µM, the TGI (U251 CNS) was greater than 100 µM and the TGI (COLO 205 colon) was greater than 100 µM. For the same molecule, the TGI (786-0 renal) was greater than 100 µM, the TGI (UACC-257 melanoma) was greater than 100 µM and the TGI (SK-MEL-5 melanoma) was greater than 100 µM. The TGI (ACHN renal) was greater than 100 µM, the TGI (HL-60(TB) leukemia) was greater than 100 µM and the TGI (DU-145 prostate) was greater than 100 µM. For the same molecule, the TGI (OVCAR-3 ovarian) was greater than 100 µM, the TGI (HT29 colon) was greater than 100 µM and the TGI (LOX IMVI melanoma) was greater than 100 µM. The TGI (EKVX NSCLC) was 79.1 µM, the TGI (K-562 leukemia) was greater than 100 µM and the TGI (NCI-H522 lung) was greater than 100 µM.

With CSc1ccc(C2C(Cl)C(=O)N2NC(=O)c2c(Cl)c(Cl)c(Cl)c(Cl)c2-c2nc3ccccc3[nH]2)cc1 (centres undefined) the TGI (PC-3 prostate) was 45.8 µM, the TGI (SR leukemia) was greater than 100 µM and the TGI (RXF 393 renal) was 5.01 µM. The TGI (MALME-3M melanoma) was 39.5 µM, the TGI (SW-620 colon) was greater than 100 µM and the TGI (NCI/ADR-RES ovarian) was greater than 100 µM. For the same molecule, the TGI (UO-31 renal) was greater than 100 µM, the TGI (HOP-62 NSCLC) was greater than 100 µM and the TGI (NCI-H226 lung) was 38.5 µM. It also gave a TGI (CAKI-1 renal) of 42.8 µM, a TGI (HCC-2998 colon) of 37 µM and a TGI (SNB-19 CNS) of 73.4 µM. It also gave a TGI (UACC-62 melanoma) greater than 100 µM, a TGI (MDA-MB-435) of 37 µM and a TGI (T-47D breast) of 12.3 µM. For the same molecule, the TGI (SF-539 CNS) was 53.4 µM, the TGI (MDA-N) was 87.9 µM and the TGI (SN12C renal) was 37 µM. The TGI (M14 melanoma) was 56.7 µM, the TGI (IGROV1 ovarian) was 2.14 µM and the TGI (A498 renal) was 72.1 µM. For the same molecule, the TGI (A549 NSCLC) was greater than 100 µM, the TGI (HCT-116 colon) was 33.7 µM and the TGI (SK-MEL-28 melanoma) was 44.4 µM. The TGI (SNB-75 CNS) was 35.4 µM, the TGI (MOLT-4 leukemia) was 68.7 µM and the TGI (HOP-92 NSCLC) was 25.1 µM. It also gave a TGI (SF-295 CNS) greater than 100 µM, a TGI (HS 578T breast) greater than 100 µM and a TGI (HCT-15 colon) of 60.4 µM. The TGI (SK-MEL-2 melanoma) was greater than 100 µM, the TGI (BT-549 breast) was 48.1 µM and the TGI (OVCAR-8 ovarian) was 59.9 µM. For the same molecule, the TGI (MCF7 breast) was greater than 100 µM, the TGI (NCI-H23 lung) was 43.1 µM and the TGI (OVCAR-5 ovarian) was 53.4 µM. The TGI (SF-268 CNS) was 64.4 µM, the TGI (KM12 colon) was 34.8 µM and the TGI (COLO 205 colon) was 40.6 µM. The TGI (786-0 renal) was 76.8 µM, the TGI (UACC-257 melanoma) was 51.3 µM and the TGI (SK-MEL-5 melanoma) was 35.7 µM. It also gave a TGI (ACHN renal) of 71.4 µM, a TGI (HL-60(TB) leukemia) of 55.1 µM and a TGI (DU-145 prostate) of 31.3 µM. It also gave a TGI (OVCAR-3 ovarian) of 50.7 µM, a TGI (HT29 colon) greater than 100 µM and a TGI (SK-OV-3 ovarian) of 93.4 µM. For the same molecule, the TGI (LOX IMVI melanoma) was 15.6 µM, the TGI (EKVX NSCLC) was 37.9 µM and the TGI (K-562 leukemia) was greater than 100 µM. It also gave a TGI (NCI-H522 lung) of 4.87 µM.
